One compound from patent US10576151B2, “Ciclopirox for use in modulation of glucose homeostasis” (UNIVERSITY OF SOUTH CAROLINA, priority 2015, dated 2020) can be followed below.

Entries after “also recorded” stand apart in the source; their conditions may differ.

One assay concerns diabetic wt mice. Kind of assay: Fasting glucose in diet-induced diabetic wild type mice. The format is in vivo, C57BI/6 mice. To be noted: wt mice diabetic by high fat diet and sweetened water; CPX 25 mg/kg daily (FIG. 5A). From the text: In Vivo Analysis of Anti-Diabetic Effect of CPX. Mice were randomly grouped. A group of C57BI/6 mice 4-5 weeks old, were fed with either a solution of 10% sucrose and a diet containing 40% kcal as a high-fat diet (HFD; Open Source Diets (New Brunswick, N.J., USA) D12451, 40% calories/fat with free access to (10%) sweetened water (sucrose) or a control chow diet containing 10% of kcal as fat (low-fat diet) and drinking water with no added sucrose (control). Mice with a glucose concentration exceeding 180 mg/dL were considered diabetic, after 2 consecutive glucose measurements. The blood glucose levels were measured using an Accu-Check blood glucose monitor (Roche, Indianapolis, Ind., USA) using blood sample collected from the tail vein. Diabetic mice were treated with either treated daily for 20 days by oral gavages with CPX (25 mg/kg) prepared in a solution (4% ethanol, 5.2% Tween 80, and 5.2% PEG 400) or vehicle control. […] Glucose levels of mice were measured by an Accu-Chek Active meter (ROCHE) with blood sample obtained from the tail. […] For insulin resistance test, mice were injected intraperitoneally at a dose of 0.75 units/kg with human insulin (0.75 U/kg body weight; Sigma) at different time points as indicated, as for glucose tolerance after insulin injection and blood glucose was measured as described. […]

Assay [1] concerns wt mice receiving normal diet. Put plainly: Fasting glucose in non-diabetic wild type mice on normal diet. The format is in vivo, C57BI/6 mice. To be noted: non-diabetic wt mice on normal diet with CPX (FIG. 5B, FIG. 7A). From the text:
In Vivo Analysis of Anti-Diabetic Effect of CPX. Mice were randomly grouped. A group of C57BI/6 mice 4-5 weeks old, were fed with either a solution of 10% sucrose and a diet containing 40% kcal as a high-fat diet (HFD; Open Source Diets (New Brunswick, N.J., USA) D12451, 40% calories/fat with free access to (10%) sweetened water (sucrose) or a control chow diet containing 10% of kcal as fat (low-fat diet) and drinking water with no added sucrose (control). Mice with a glucose concentration exceeding 180 mg/dL were considered diabetic, after 2 consecutive glucose measurements. The blood glucose levels were measured using an Accu-Check blood glucose monitor (Roche, Indianapolis, Ind., USA) using blood sample collected from the tail vein. […] Glucose levels of mice were measured by an Accu-Chek Active meter (ROCHE) with blood sample obtained from the tail. […] For insulin resistance test, mice were injected intraperitoneally at a dose of 0.75 units/kg with human insulin (0.75 U/kg body weight; Sigma) at different time points as indicated, as for glucose tolerance after insulin injection and blood glucose was measured as described. In order to test if the antidiabetic activity of CPX was elicited only in diabetic mice or in non-diabetic mice as well, plasma glucose levels were assessed in wt mice that were receiving normal diet in combination with CPX.

Another assay relates to C57BI/6 mice. Put plainly: Intraperitoneal insulin tolerance (insulin sensitivity) test. The format is in vivo. As for the experimental part: Glucose Level Determination and Intraperitoneal Insulin Tolerance Test. Mice were fasted for 6 h. Glucose levels of mice were measured by an Accu-Chek Active meter (ROCHE) with blood sample obtained from the tail. For glucose tolerance, mice were injected i.p. with 2 g glucose/kg blood glucose was checked at different time points as indicated (at either 0, 30, 60, 90, 120, 160, 220 min.). For insulin resistance test, mice were injected intraperitoneally at a dose of 0.75 units/kg with human insulin (0.75 U/kg body weight; Sigma) at different time points as indicated, as for glucose tolerance after insulin injection and blood glucose was measured as described.

For `Cc1cc(C2CCCCC2)n(O)c(=O)c1` [CPX, 6-cyclohexyl-1-hydroxy-4-methylpyridin-2(1H)-one], the “blood glucose levels (fasting glucose)” value in the assay on diabetic wt mice is reported as “effectively improved glucose homeostasis causing reduction of blood glucose levels”. Further, the “glucose levels (fasting)” value in assay [1] is reported as “no reduction of glucose levels was recorded; also recorded: not affected”. In addition, the insulin sensitivity result is reported as “restored the response of diabetic mice to acute administration of glucose” in the assay with C57BI/6 mice (diabetic mice, CPX vs saline (FIG. 6B)) and “not affected” in the assay on C57BI/6 mice (non-diabetic wt mice on normal diet, CPX vs saline (FIG. 7C)).
